Experimental data published in patent publication US8741899B2, “(4-chloro-2-fluoro-N-(2-fluorophenyl)-5-[(8aR)-hexahydropyrrolo-[1,2-a]pyrazin-2(1H)-ylcarbonyl]-benzenesulfonamide, and pharmaceutically acceptable salts thereof” (AbbVie Inc., priority 2009, dated 2014).

What was measured:
Human Cav3.2 Channels = biological target: T1, Human Cav3.2 Channels (Homo sapiens, UniProt O95180); assay: Electrophysiologic (whole-cell patch-clamp) assessment of calcium channel activity in HEK293 cells stably expressing hCav3.2; assay type: cell-based; details: −77 mV, geometric mean, read-out: Human Cav3.2 −77 mV IC50 (μM) GeoMean
T1 construct: expressed in transfected cells
T1 sequence (O95180 whole entry): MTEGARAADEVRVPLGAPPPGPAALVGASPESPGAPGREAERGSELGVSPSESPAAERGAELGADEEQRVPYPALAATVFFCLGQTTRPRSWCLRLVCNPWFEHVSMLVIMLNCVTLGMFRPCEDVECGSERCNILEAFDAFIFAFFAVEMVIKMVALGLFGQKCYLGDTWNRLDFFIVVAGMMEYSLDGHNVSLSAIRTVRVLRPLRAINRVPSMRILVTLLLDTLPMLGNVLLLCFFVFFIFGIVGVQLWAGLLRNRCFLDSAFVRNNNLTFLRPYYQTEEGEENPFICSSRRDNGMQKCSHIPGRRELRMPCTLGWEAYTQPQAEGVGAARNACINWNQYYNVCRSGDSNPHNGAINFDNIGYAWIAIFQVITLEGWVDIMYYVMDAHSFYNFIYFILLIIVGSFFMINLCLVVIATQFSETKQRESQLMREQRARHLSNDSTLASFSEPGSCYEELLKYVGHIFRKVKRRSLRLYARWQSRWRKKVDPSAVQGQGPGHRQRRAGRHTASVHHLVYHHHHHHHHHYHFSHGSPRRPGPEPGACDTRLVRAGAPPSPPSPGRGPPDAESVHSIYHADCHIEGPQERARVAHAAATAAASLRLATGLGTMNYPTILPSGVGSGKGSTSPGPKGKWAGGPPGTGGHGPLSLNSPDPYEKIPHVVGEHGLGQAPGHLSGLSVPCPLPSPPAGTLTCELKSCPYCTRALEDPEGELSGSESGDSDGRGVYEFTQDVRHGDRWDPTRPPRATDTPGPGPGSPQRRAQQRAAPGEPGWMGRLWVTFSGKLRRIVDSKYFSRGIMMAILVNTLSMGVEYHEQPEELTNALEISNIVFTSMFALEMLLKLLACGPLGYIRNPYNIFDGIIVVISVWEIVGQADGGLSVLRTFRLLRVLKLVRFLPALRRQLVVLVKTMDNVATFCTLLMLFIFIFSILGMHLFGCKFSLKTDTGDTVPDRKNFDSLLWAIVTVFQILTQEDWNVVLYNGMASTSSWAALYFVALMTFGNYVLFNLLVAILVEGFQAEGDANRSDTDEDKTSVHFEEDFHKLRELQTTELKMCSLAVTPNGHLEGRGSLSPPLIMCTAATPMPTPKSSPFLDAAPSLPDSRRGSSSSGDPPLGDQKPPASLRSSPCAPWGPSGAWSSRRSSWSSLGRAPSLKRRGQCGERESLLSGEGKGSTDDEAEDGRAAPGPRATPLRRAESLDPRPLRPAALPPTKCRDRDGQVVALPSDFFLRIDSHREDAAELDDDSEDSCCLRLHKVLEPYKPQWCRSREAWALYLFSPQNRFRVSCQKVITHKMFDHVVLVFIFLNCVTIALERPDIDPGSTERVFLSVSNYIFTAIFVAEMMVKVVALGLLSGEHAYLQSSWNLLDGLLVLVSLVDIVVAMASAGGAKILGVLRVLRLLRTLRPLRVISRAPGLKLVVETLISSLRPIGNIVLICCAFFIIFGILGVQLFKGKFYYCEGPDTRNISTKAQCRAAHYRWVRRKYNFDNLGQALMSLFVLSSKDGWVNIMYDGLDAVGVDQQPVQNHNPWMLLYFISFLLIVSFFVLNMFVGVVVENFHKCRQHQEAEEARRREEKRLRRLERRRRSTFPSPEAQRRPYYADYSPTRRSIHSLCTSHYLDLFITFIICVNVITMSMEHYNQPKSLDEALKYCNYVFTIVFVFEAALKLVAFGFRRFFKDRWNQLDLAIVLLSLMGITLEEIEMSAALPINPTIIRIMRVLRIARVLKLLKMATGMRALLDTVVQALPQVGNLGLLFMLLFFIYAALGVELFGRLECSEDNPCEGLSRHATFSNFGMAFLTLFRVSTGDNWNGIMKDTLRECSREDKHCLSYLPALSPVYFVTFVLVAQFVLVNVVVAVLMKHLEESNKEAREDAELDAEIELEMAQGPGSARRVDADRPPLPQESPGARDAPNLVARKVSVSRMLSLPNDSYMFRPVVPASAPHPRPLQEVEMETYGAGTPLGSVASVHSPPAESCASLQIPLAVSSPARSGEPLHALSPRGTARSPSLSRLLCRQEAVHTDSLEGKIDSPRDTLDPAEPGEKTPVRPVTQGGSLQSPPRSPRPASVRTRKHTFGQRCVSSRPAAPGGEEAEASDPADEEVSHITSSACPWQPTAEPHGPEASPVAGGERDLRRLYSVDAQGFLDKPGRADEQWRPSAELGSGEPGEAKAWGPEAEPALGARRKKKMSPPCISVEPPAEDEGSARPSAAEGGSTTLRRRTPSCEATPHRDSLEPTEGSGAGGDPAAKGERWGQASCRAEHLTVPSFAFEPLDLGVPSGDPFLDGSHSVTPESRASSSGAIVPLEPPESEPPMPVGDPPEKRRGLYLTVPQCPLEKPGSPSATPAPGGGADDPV
Outline: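 HEK293 cells stably expressing hCav3.2, whole-cell patch clamp; external 5 mM CaCl2 with CsCl/TEA-Cl, pH 7.2; Cs-based internal with 4 mM Mg2ATP. Two-pulse protocol: 8 s prepulse at −100 mV or ~−75 mV, then test pulse to −30 mV. Cumulative antagonist additions, 5 min each; responses normalized to DMSO vehicle.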

Sprague Dawley rats = assay: Capsaicin induced secondary mechanical hyperalgesia model; assay type: in vivo; details: rat, 60 minutes before testing, secondary mechanical hyperalgesia 180 minutes after capsaicin, von Frey filaments
Experimental: (ii) In Vivo Data—Capsaicin Induced Secondary Mechanical Hyperalgesia Model:
Sprague Dawley rats were briefly restrained, and capsaicin was administered at 10 μg in 10 μL of vehicle by intraplantar injection into the center of the right hind paw. Secondary mechanical hyperalgesia (SMH) was measured at the heel away from the site of injection 180 minutes following capsaicin exposure. Compounds and gabapentin (positive control), were administered p.o. 60 minutes before testing (2 hours after capsaicin) or i.p. 30 minutes before testing (2.5 hours after capsaicin). SMH was measured using calibrated von Frey filaments (Stoelting, Woodale, Ill.). Following the 1 hour habituation in the testing room, rats were moved to individual plexiglass chambers that sit on top of a wire mesh to allow for access for stimulation of the plantar surface of the hind paws. Rats were allowed to acclimate to the new chambers for 15 minutes before the onset of testing. The paw withdrawal threshold was determined by increasing and decreasing stimulus intensity (force: g) and calculated using Dixon's up-down method (Chaplan, S. R.; Bach, F. W.; Pogrel, J. W.; Chung, J. M.; Yaksh, T. L.; Quantitative assessment of tactile allodynia in the rat paw. J. Neuroscience Methods 1994, 53(1), 55-63). The filaments (maximum force of 15.0 g) were held in place for 8 seconds or until there was a withdrawal response from the mechanical stimulation.

Row | Structure (SMILES) | IC50 (Human Cav3.2 Channels) | Inhibition to Pain Response, % inhibition @ 30 mg/kg p.o. (Sprague Dawley rats)
1 | O=C(c1cccc(S(=O)(=O)Nc2ccccc2F)c1)N1CCN2CCC[C@@H]2C1 [Example 2, N-(2-fluorophenyl)-3-[(8aR)-hexahydropyrrolo[1,2-a]pyrazin-2(1H)-ylcarbonyl]benzenesulfonamide] | 10.6 µM | 58%
2 | O=C(c1cccc(S(=O)(=O)Nc2cccc(F)c2)c1)N1CCN2CCC[C@H]2C1 [Example 3, N-(3-fluorophenyl)-3-[(8aS)-hexahydropyrrolo[1,2-a]pyrazin-2(1H)-ylcarbonyl]benzenesulfonamide] | 5.9 µM | 44%
3 | O=C(c1cccc(S(=O)(=O)Nc2c(F)cccc2F)c1)N1CCN2CCC[C@@H]2C1 [Example 13, N-(2,6-difluorophenyl)-3-[(8aR)-hexahydropyrrolo[1,2-a]pyrazin-2(1H)-ylcarbonyl]benzenesulfonamide] | 5.6 µM | 37%
4 | O=C(c1cc(S(=O)(=O)Nc2ccccc2F)c(F)cc1Cl)N1CCN2CCC[C@@H]2C1 [Example 20, 4-chloro-2-fluoro-N-(2-fluorophenyl)-5-[(8aR)-hexahydropyrrolo[1,2-a]pyrazin-2(1H)-ylcarbonyl]benzenesulfonamide] | 6 µM | 43%
5 | O=C(c1cccc(S(=O)(=O)Nc2ccc(C(F)(F)F)cc2)c1)N1CCN2CCCCC2C1 (stereo not drawn) [Example 37, 3-(octahydro-2H-pyrido[1,2-a]pyrazin-2-ylcarbonyl)-N-[4-(trifluoromethyl)phenyl]benzenesulfonamide] | 1.1 µM | 63%
6 | O=C(c1cc(S(=O)(=O)Nc2ccccc2F)c(Cl)cc1Cl)N1CCN2CCC[C@@H]2C1 [Example 64, 2,4-dichloro-N-(2-fluorophenyl)-5-[(8aR)-hexahydropyrrolo[1,2-a]pyrazin-2(1H)-ylcarbonyl]benzenesulfonamide] | 1.7 µM | 57%
